According to ChEMBL document CHEMBL5120868, “Tuaimenal A, a Meroterpene from the Irish Deep-Sea Soft Coral Duva florida, Displays Inhibition of the SARS-CoV-2 3CLpro Enzyme” (J Nat Prod, 2022):

Legend:
[1] = molecular target: Replicase polyprotein 1ab (Severe acute respiratory syndrome coronavirus 2) (UniProt P0DTD1); assay: Inhibition of recombinant SARS-CoV-2 3CLpro expressed in Escherichia coli BL21 at […] using LGSAVLQ-rhodamine 110-dp as fluorogenic substrate preincubated for 15 mins followed by substrate addition by spectrophotometry analysis relative to control
[2] = molecular target: Replicase polyprotein 1ab (Severe acute respiratory syndrome coronavirus 2) (UniProt P0DTD1); assay: Inhibition of recombinant SARS-CoV-2 3CLpro expressed in Escherichia coli BL21 at 20 uM using LGSAVLQ-rhodamine 110-dp as fluorogenic substrate preincubated for 15 mins followed by substrate addition by spectrophotometry analysis relative to control
[3] = molecular target: Replicase polyprotein 1ab (Severe acute respiratory syndrome coronavirus 2, UniProt P0DTD1); assay: Inhibition of recombinant SARS-CoV-2 3CLpro expressed in Escherichia coli BL21 using LGSAVLQ-rhodamine 110-dp as fluorogenic substrate preincubated for 15 mins followed by substrate addition by spectrophotometry analysis

Compound `NCCc1ccc(S(=O)(=O)F)cc1` has an inhibition [1] of 100%.

For `CC(C)=CCC/C(C)=C/CC[C@]1(C)C=Cc2c(C=O)c(O)c(C)c(O)c2O1`, the inhibition [2] was 40% and the IC50 [3] was 21 µM.
